For data set [1] the following is noted: U.S. Pat. Nos. 3,542,785 and 3,668,207; cited from earlier work.
For data set [2] the following is noted: U.S. Pat. Nos. 3,542,785 and 3,668,207; cited from earlier work. The source holds these as a separate data set.
Data set [3] concerns ulceration induced by ethanol in rats. The data set can be described thus: Effect on the ulceration induced by ethanol in rats (gastric cytoprotection activity), Test 1. The format is in vivo, rat (male Wistar). Conditions: ethanol-induced ulcer, rat. As for the experimental part: Effect on the ulceration induced by ethanol in rats (gastric cytoprotection activity) This test was carried out according to the method of Robert [cf. […] Male Wistar rats weighing 190 g to 200 g were fasted for 24 hours and then given orally 1 ml of absolute ethanol. After 1 hour, the animals were sacrificed under ether anesthesia, and the stomachs were removed and cut along the greater curvature. The length (mm) of each lesion in the glandular portion was measured using a dissecting microscope (×12). The sum of the length (mm) of each lesion in a stomach was indicated as an ulcer index. The inhibitory rate was determined by comparing the ulcer index in drug-treated groups with that in control group. Test compounds were administered orally 30 minutes before the administration of ethanol. In the control group, a vehicle (a 0.5% tragacanth solution) was administered orally.

The subject of data set [4] is ulceration induced by pylorus-ligation (Shay ulcer) in rats. The data set can be described thus: Effect on the ulceration induced by pylorus-ligation (Shay ulcer) in rats, Test 3. The format is in vivo, rat (male Wistar). The conditions noted are these: rat; for Ulcer index: index of 0 to 5. Here is the method: Effect on the ulceration induced by pylorus-ligation (Shay ulcer) in rats […] The portion between pylorus and duodenum of each rat was ligated under ether anesthesia according to the method of Shay et al. […] Each of the animals was then allowed to stand abstained from food and water in a cage. After 18 hours, the animals were sacrificed under ether anesthesia, and the stomachs were removed and cut along the greater curvature. […] 0: no lesion 1: hemorrhage or erosion […] The inhibitory rate was determined by comparing the ulcer index in drug-treated groups with that in the control group. […] Test compounds were administered orally 30 minutes before the ligation. In the control group, a vehicle (a 0.5% tragacanth solution) was administered orally.

Data set [5] relates to Male ddY mice. The data set can be described thus: Acute toxicity, Test 5. Format: in vivo, mouse (male ddY). Conditions: 7 days; for Number of dead animals/number of used animals: mouse. The text has this: Male ddY mice weighing 20 g to 25 g were used in groups of 10 animals each. Test compounds, dissolved or suspended in a 0.5% tragacanth solution, were orally administered at a prescribed dose to the animals.

In data set [6] the test system is ulceration induced by exposure to stress (restraint and water immersion) in rats. The data set can be described thus: Effect on the ulceration induced by exposure to stress (restraint and water immersion) in rats, Test 2. The format is in vivo, rat (male Wistar). Conditions: stress-induced ulcer, rat, 10 mg/kg p.o. As for the experimental part: Effect on the ulceration induced by exposure to stress (restraint and water immersion) in rats The effect evaluated by this test is considered to be fairly well correlative to inhibitory effect on gastric acid secretion. Male Wistar rats weighing about 200 g were used in groups of 5 animals each. According to the method of Takagi et al. [cf. Japan. […] After 20 hours, the animals were taken out from the water bath and sacrificed under ether anesthesia, and the stomachs were removed. The stomach was inflated with 13 ml of physiological saline and placed in a 5% formalin solution for 5 minutes. After washing with physiological saline, the stomach was cut along the greater curvature and the length (mm) of each lesion in the glandular portion was measured using a dissecting microscope (×12). The sum of the length (mm) of each lesion in a stomach was indicated as an ulcer index. The inhibitory rate was determined by comparing the ulcer index in drug-treated groups with that in control group. Test compounds were administered orally 30 minutes before the immersion. In the control group, a vehicle (a 0.5% tragacanth solution) was administered orally.

The test system of data set [7] is hypothermia induced by reserpine. Briefly: Antireserpine activity (antagonistic effect on hypothermia induced by reserpine), Test 4. The format is in vivo, mouse (male ddY). Conditions: mouse. As for the experimental part: Antireserpine activity (antagonistic effect on hypothermia induced by reserpine)
This test was carried out according to the method of Askew [cf. Life Sci., 2, 725 (1963)].
Male ddY mice weighing 22 g to 27 g were used in groups of 5 animals each. Test compounds were administered orally to the animals, and immediately 5 mg/kg of reserpine was injected intraperitoneally. Rectal temperature of each mouse was measured 4 hours later with a thermistor (Shibaura Electric, BMG III-130). The inhibitory rate was determined by comparing the fall of rectal temperature in drug-treated groups with that in control group. In the control group, a vehicle (a 0.5% tragacanth solution) was administered orally.

For data set [8] the following is noted: U.S. Pat. No. 4,237,135; cited from earlier work.
The conditions of data set [9]: U.S. Pat. No. 4,237,135; cited from earlier work. This is another data set of the same source.
For data set [10] the following is noted: U.S. Pat. No. 4,237,135; cited from earlier work. This is another data set of the same source.

In the case of `CN1CCN(c2cc(-c3ccccc3)c3cc(Cl)ccc3n2)CC1` [6-chloro-2-(4-methyl-1-piperazinyl)-4-phenylquinoline], the antiinflammatory activity entry in [1] was “have antiinflammatory and diuretic activities”. Besides, the diuretic activity result in [2] was “have antiinflammatory and diuretic activities”.

On to `Cl.Cl.OCCN1CCN(c2cc(-c3ccc(F)cc3)c3ccccc3n2)CC1` [A, 2-[4-(2-hydroxyethyl)-1-piperazinyl]-4-(4-fluorophenyl)quinoline dihydrochloride], for which the Ulcer index in data set [3] (5 mg/kg p.o.) is 31.6 ± 11.3 mm; in data set [3] (10 mg/kg p.o.) it was 9.8 ± 2.9 mm; in data set [3] (20 mg/kg p.o.), 9.2 ± 4.1 mm; in data set [4] (Shay ulcer, 10 mg/kg p.o.), 2.4 ± 0.4; in [4] (Shay ulcer, 20 mg/kg p.o.), 2 ± 0.8; in data set [4] (Shay ulcer, 50 mg/kg p.o.), 1.4 ± 0.2. The Ulcer index in [4] (Shay ulcer, 100 mg/kg p.o.) is 1.2 ± 0.2; in [6] it was 7.4 ± 3.6 mm. Besides, in data set [3] (po, 1 h, 5 mg/kg p.o., read-out: Inhibitory rate), the inhibition in vivo at 5 mg/kg turned out to be 33.9%. Moreover, the inhibition in vivo at 10 mg/kg is 79.5% in data set [3] (po, 1 h, 10 mg/kg p.o., read-out: Inhibitory rate) and 69.2% in data set [6] (po, 20 h, read-out: Inhibitory rate). The inhibition in vivo at 20 mg/kg in data set [3] (po, 1 h, 20 mg/kg p.o., read-out: Inhibitory rate) was determined as 80.8%. The Inhibitory rate is 33.3% in [4] (Shay ulcer, 10 mg/kg p.o.); 44.4% in data set [4] (Shay ulcer, 20 mg/kg p.o.); 61.1% in data set [4] (Shay ulcer, 50 mg/kg p.o.); 66.7% in data set [4] (Shay ulcer, 100 mg/kg p.o.); 20.6% in [7] (50 mg/kg p.o.); 65.5% in data set [7] (100 mg/kg p.o.). For the same compound, the ED50 in data set [4] (po, 18 h, Shay ulcer, graphic method, read-out: ED50 (dose required to inhibit ulcer index by 50%)) turned out to be 26.5 mg/kg. Besides, in data set [4] (p.o., vs cimetidine), the “potency relative to cimetidine in preventive effect on Shay ulcer” value was “about 10 times”. Besides, the “death of mouse (in words)” value in data set [5] (250 mg/kg p.o.) was “death of mouse was not observed”. Moreover, the figures for the “Number of dead animals/number of used animals” value in [5] (250 mg/kg p.o.), in [5] (500 mg/kg p.o.) and in data set [5] (1000 mg/kg p.o.) were 0/10, 2/10 and 5/10, respectively.

For `CCN1CCN(c2cc(-c3ccccc3)c3ccccc3n2)CC1` [2-(4-ethyl-1-piperazinyl)-4-phenylquinoline], the antireserpine activity result in data set [8] is reported as “have an antireserpine activity”. Moreover, in [9], the antitremorine activity entry is “have also antitremorine activity”. The “inhibitory effect on spontaneous locomotor activity” value in data set [10] is recorded as “inhibitory effect on spontaneous locomotor activity”.
